In US8080235B2, “Protein kinase A reporters useful in high throughput assays” (The Johns Hopkins University, priority 2005, dated 2011):

What was measured:
Format in all cases: cell-based
PKA activity [1] = experiment: AKAR3 live cell 96-well plate reader assay (yellow/cyan emission ratio)
Procedure: (§1) Live Cell Plate Reading. HEK-293 cells were transfected with AKAR3 or ICUE3 using calcium phosphate at 40% confluency and grown for 40 hours. Cells were then trypsinized and plated in a Costar 3603 96-well plate (Corning) at a density of 150,000 cells per well. After incubation for another 24 hours, cells were washed once with HBSS and left in 150 μl of HBSS at 20-25° C. Fluorescence reading was taken on a FLUOstar OPTIMA fluorescence microplate reader (BMG Labtechnologies Inc.) using a 420DF20 excitation filter and two emission filters (470DF40 for cyan and 535DF25 for yellow). A baseline was established in three cycles, each consisting of a full plate reading of yellow intensity, followed by a reading of cyan intensity.
(§2) Each cycle lasted between 64 and 92 seconds. Cells were then treated with ISO, Fsk, H89, Propranolol (Pro; Sigma), or 3-isobutyl-1-methylxanthine (IBMX; Sigma) as indicated. Readings were taken in additional cycles. FRET change was calculated as the percent increase of emission ratios (yellow-to-cyan for AKAR and cyan-to-yellow for ICUE) over baseline for each well during a given cycle. Several parameters were calculated to assess the efficiency of the assay, including Z′ factor, coefficient of variation, and signal to noise (S/N) ratio (22).
AKAR2 (FIG. 4). This reporter, AKAR3 (FIG. 1b), was tested in a 96-well plate format. […] As negative controls, addition of buffer of 2% DMSO generated minimal changes in emission ratios. This 96-well plate assay was sensitive and reproducible, with a signal to noise ratio of 30.3, a Z′ factor of 0.84, and a coefficient of variation (CV) of 1.8% for the Fsk-stimulated response.
To provide specific readout of compartmentalized PKA activities, we introduced a C-terminal nuclear export signal (NES) to AKAR3 . In the plate reader assay using AKAR3 -NES (FIG. 1d), cytosolic PKA activity was recorded without contamination of nuclear activity, which has slower kinetics due to diffusional translocation of the catalytic subunit from cytosol to nucleus. […] Thus, sensor targeting provides increased temporal and spatial resolution and can be used to reveal how individual signaling microdomains, such as kinase-containing signaling complexes, are affected by drugs or other perturbations, adding another level of capacity to the non-image-based high-throughput assays of the invention.

PKA activity [2] = experiment: AKAR3 high-throughput screening of Johns Hopkins Clinical Compound Library; conditions: 10 μM compound about 15 min, then 0.25 μM ISO
Procedure: Live Cell High-Throughput Screening. […] After incubation for 24 hours, cells were washed once with HBSS and left in 190 μl of HBSS at 20-25° C. Fluorescence readings were taken as described above, with each cycle lasting 90 seconds. Following baseline acquisition, cells in each experimental well were treated with a compound from the Johns Hopkins Clinical Compound Library to a final concentration of 10 μM. Control cells were treated with 10 μL of 10% fetal bovine serum (FBS) in a solution of phosphate buffered saline (PBS) at pH 7.4, which is the solution used to dissolve library compounds.
Ten final cycles were then performed.
FRET responses were calculated as described above. […] Agonist hits were defined as compounds eliciting responses larger than six times the standard deviation above the baseline. Antagonist hits were defined as compounds which decreased the ISO stimulated response by 50% or by six times the standard deviation.
In a primary screening, 160 compounds from the Johns Hopkins Clinical Compound Library were added to AKAR3-expressing HEK-293 cells in individual wells of 96-well plates to a final concentration of 10 μM after a base line reading. Time courses were recorded to monitor any fluorescence changes upon drug addition and to identify hits which activate PKA as potential agonists.
Potential agonists were identified by selecting compounds which stimulated emission ratio changes larger than 6 times the standard deviation above the negative control (FIG. 3a ).

cAMP [3] = experiment: ICUE high-throughput screening of Johns Hopkins Clinical Compound Library (stable cells); conditions: 10 μM compound, then 0.25 μM Iso plus 100 μM IBMX
Procedure: Live Cell High-Throughput Screening. HEK-293 cells transiently expressing AKAR or stably expressing ICUE were trypsinized and plated in a Costar 3606 96-well plate (Corning) at a density of 150,000 cells per well. After incubation for 24 hours, cells were washed once with HBSS and left in 190 μl of HBSS at 20-25° C. Fluorescence readings were taken as described above, with each cycle lasting 90 seconds. Following baseline acquisition, cells in each experimental well were treated with a compound from the Johns Hopkins Clinical Compound Library to a final concentration of 10 μM. Control cells were treated with 10 μL of 10% fetal bovine serum (FBS) in a solution of phosphate buffered saline (PBS) at pH 7.4, which is the solution used to dissolve library compounds.
Readings were taken for 10 cycles spanning a time of approximately 15 minutes, after which cells in experimental wells and positive controls were treated with 0.25 μM ISO (AKAR) or 0.25 μM Iso plus 100 μM IBMX (ICUE), while negative controls received 0.5% DMSO in HBSS. Ten final cycles were then performed.
FRET responses were calculated as described above. Negative control (10% FBS, 0.5% DMSO) and positive control (10% FBS, 0.25 μM ISO) curves were generated. Agonist hits were defined as compounds eliciting responses larger than six times the standard deviation above the baseline. […]

cAMP [4] = experiment: ICUE3 live cell high-throughput cAMP plate reader assay (cyan/yellow emission ratio)
Procedure: as §1, §2
To follow the activity of the signaling pathway and to assay related drug targets in parallel, we developed a live cell-based high-throughput assay for cAMP, a second messenger that is generated via activation of Gs-coupled GPCRs and exerts its effects by activating PKA and other effectors. Similar improvement approaches were first applied to create a reporter that more than doubled the response of previous “Indicator for cAMP Using Epac” (ICUE), which generates a decrease in FRET upon binding of cAMP (FIG. 5). […] Possible sources of the variation and reduced signal are transfection efficiency and expression variability.

CC(C)NCC(O)COc1cccc2ccccc12 (stereo not drawn) [Pro, propranolol]
effect on ISO-induced AKAR3 response (PKA activity [1]; 10 μM Pro, FIG. 2): inhibited | effect on Fsk-stimulated AKAR3 response (PKA activity [1]; FIG. 2d): no effect | antagonist screen: effect on ISO-stimulated AKAR response (PKA activity [2]): potently inhibited | antagonist screen: effect on ISO-stimulated ICUE response (cAMP [3]): potently inhibited | effect on Fsk-stimulated ICUE3 response (cAMP [4]; FIG. 2c): no effect | effect on ISO-induced ICUE3 response (cAMP [4]; co-treatment, 10 μM Pro, FIG. 2a): inhibited
